Assay: Stability of Form 2 in an airtight glass bottle for up to 24 months under various storage conditions
Format: physicochemical
Design: key to Appearance: A1: White or almost white powder; key to Identification: I1: Spectrum of test sample identical to spectrum of reference sample; I3: Spectrum of test sample identical to spectrum of reference sample stored at −18° C
Procedure: Stability of 4-[(7-methoxy-2,3-dihydro-1,4-benzothiazepin-4(5H)yl)methyl]benzoic acid hemifumarate Form 2 was evaluated for up to 24 months under various conditions.

Appearance (25° C./60% RH, 1 Y): A1
Assay of Drug substance (LC) (25° C./60% RH, 1 Y): 99.8%
Identification (25° C./60% RH, 1 Y): I3
Related substances content (LC) Sum of impurities (25° C./60% RH, 1 Y): ≤0.05%
Water content (25° C./60% RH, 1 Y): <0.1%
Appearance (25° C./60% RH, 2 Y): A1
Assay by potentiometry (25° C./60% RH, 2 Y): 99.6%
Assay of Drug substance (LC) (25° C./60% RH, 2 Y): 99.5%
Identification (25° C./60% RH, 2 Y): I3
Related substances content (LC) Sum of impurities (25° C./60% RH, 2 Y): ≤0.05%
Water content (25° C./60% RH, 2 Y): <0.1%
Appearance (25° C./60% RH, 3 M): A1
Assay by potentiometry (25° C./60% RH, 3 M): 100.0%
Assay of Drug substance (LC) (25° C./60% RH, 3 M): 99.6%
Identification (25° C./60% RH, 3 M): I3
Related substances content (LC) Sum of impurities (25° C./60% RH, 3 M): ≤0.05%
Water content (25° C./60% RH, 3 M): 0.1%
Appearance (25° C./60% RH, 6 M): A1
Assay by potentiometry (25° C./60% RH, 6 M): 102.1%
Assay of Drug substance (LC) (25° C./60% RH, 6 M): 99.7%
Identification (25° C./60% RH, 6 M): I3
Related substances content (LC) Sum of impurities (25° C./60% RH, 6 M): ≤0.05%
Water content (25° C./60% RH, 6 M): 0.1%
Appearance (25° C./60% RH, 6 W): A1
Assay by potentiometry (25° C./60% RH, 6 W): 99.7%
Assay of Drug substance (LC) (25° C./60% RH, 6 W): 102.5%
Identification (25° C./60% RH, 6 W): I3
Related substances content (LC) Sum of impurities (25° C./60% RH, 6 W): ≤0.05%
Water content (25° C./60% RH, 6 W): <0.1%
Appearance (25° C./60% RH, 9 M): A1
Assay by potentiometry (25° C./60% RH, 9 M): 99.1%
Assay of Drug substance (LC) (25° C./60% RH, 9 M): 100.6%
Identification (25° C./60% RH, 9 M): I3
Related substances content (LC) Sum of impurities (25° C./60% RH, 9 M): ≤0.05%
Water content (25° C./60% RH, 9 M): <0.1%
Appearance (25° C./60% RH, 18 M): A1
Assay by potentiometry (25° C./60% RH, 18 M): 99.8%
Assay of Drug substance (LC) (25° C./60% RH, 18 M): 100.9%
Identification (25° C./60% RH, 18 M): I3
Related substances content (LC) Sum of impurities (25° C./60% RH, 18 M): ≤0.05%
Water content (25° C./60% RH, 18 M): 0.1%
Appearance (25° C./60% RH, T0): A1
Assay by potentiometry (25° C./60% RH, T0): 99.9%
Assay of Drug substance (LC) (25° C./60% RH, T0): 99.7%
Identification (25° C./60% RH, T0): I1
Related substances content (LC) Sum of impurities (25° C./60% RH, T0): ≤0.05%
Water content (25° C./60% RH, T0): 0.1%
Appearance (30° C./65% RH, 1 Y): A1
Assay of Drug substance (LC) (30° C./65% RH, 1 Y): 99.5%
Identification (30° C./65% RH, 1 Y): I3
Related substances content (LC) Sum of impurities (30° C./65% RH, 1 Y): ≤0.05%
Water content (30° C./65% RH, 1 Y): <0.1%
Appearance (30° C./65% RH, 3 M): A1
Assay by potentiometry (30° C./65% RH, 3 M): 99.8%
Assay of Drug substance (LC) (30° C./65% RH, 3 M): 99.7%
Identification (30° C./65% RH, 3 M): I3
Related substances content (LC) Sum of impurities (30° C./65% RH, 3 M): ≤0.05%
Water content (30° C./65% RH, 3 M): 0.1%
Appearance (30° C./65% RH, 6 M): A1
Assay by potentiometry (30° C./65% RH, 6 M): 100.4%
Assay of Drug substance (LC) (30° C./65% RH, 6 M): 100.2%
Identification (30° C./65% RH, 6 M): I3
Related substances content (LC) Sum of impurities (30° C./65% RH, 6 M): ≤0.05%
Water content (30° C./65% RH, 6 M): 0.1%
Appearance (30° C./65% RH, 6 W): A1
Assay by potentiometry (30° C./65% RH, 6 W): 99.8%
Assay of Drug substance (LC) (30° C./65% RH, 6 W): 102.4%
Identification (30° C./65% RH, 6 W): I3
Related substances content (LC) Sum of impurities (30° C./65% RH, 6 W): ≤0.05%
Water content (30° C./65% RH, 6 W): <0.1%
Appearance (30° C./65% RH, 9 M): A1
Assay by potentiometry (30° C./65% RH, 9 M): 99.6%
Assay of Drug substance (LC) (30° C./65% RH, 9 M): 99.7%
Identification (30° C./65% RH, 9 M): I3
Related substances content (LC) Sum of impurities (30° C./65% RH, 9 M): ≤0.05%
Water content (30° C./65% RH, 9 M): <0.1%
Appearance (30° C./65% RH, T0): A1
Assay by potentiometry (30° C./65% RH, T0): 99.9%
Assay of Drug substance (LC) (30° C./65% RH, T0): 99.7%
Identification (30° C./65% RH, T0): I1
Related substances content (LC) Sum of impurities (30° C./65% RH, T0): ≤0.05%
Water content (30° C./65% RH, T0): 0.1%
Appearance (40° C./75% RH, 3 M): A1
Assay by potentiometry (40° C./75% RH, 3 M): 99.8%
Assay of Drug substance (LC) (40° C./75% RH, 3 M): 99.5%
Identification (40° C./75% RH, 3 M): I3
Related substances content (LC) Sum of impurities (40° C./75% RH, 3 M): ≤0.05%
Water content (40° C./75% RH, 3 M): 0.1%
Appearance (40° C./75% RH, 6 M): A1
Assay by potentiometry (40° C./75% RH, 6 M): 100.5%
Assay of Drug substance (LC) (40° C./75% RH, 6 M): 99.2%
Identification (40° C./75% RH, 6 M): I3
Related substances content (LC) Sum of impurities (40° C./75% RH, 6 M): ≤0.05%
Water content (40° C./75% RH, 6 M): 0.1%
Appearance (40° C./75% RH, 6 W): A1
Assay by potentiometry (40° C./75% RH, 6 W): 99.8%
Assay of Drug substance (LC) (40° C./75% RH, 6 W): 102.2%
Identification (40° C./75% RH, 6 W): I3
Related substances content (LC) Sum of impurities (40° C./75% RH, 6 W): ≤0.05%
Water content (40° C./75% RH, 6 W): 0.1%
Appearance (40° C./75% RH, T0): A1
Assay by potentiometry (40° C./75% RH, T0): 99.9%
Assay of Drug substance (LC) (40° C./75% RH, T0): 99.7%
Identification (40° C./75% RH, T0): I1
Related substances content (LC) Sum of impurities (40° C./75% RH, T0): ≤0.05%
Water content (40° C./75% RH, T0): 0.1%
Appearance (−18° C., 1 Y): A1
Water content (−18° C., 1 Y): <0.1%
Appearance (−18° C., 2 Y): A1
Water content (−18° C., 2 Y): <0.1%
Appearance (−18° C., 3 M): A1
Water content (−18° C., 3 M): 0.1%
Appearance (−18° C., 6 M): A1
Water content (−18° C., 6 M): 0.1%
Appearance (−18° C., 6 W): A1
Assay by potentiometry (−18° C., 6 W): 99.9%
Identification (−18° C., 6 W): I3
Water content (−18° C., 6 W): 0.1%
Appearance (−18° C., 9 M): A1
Assay by potentiometry (−18° C., 9 M): 99.7%
Water content (−18° C., 9 M): <0.1%
Appearance (−18° C., 18 M): A1
Water content (−18° C., 18 M): 0.1%
Appearance (−18° C., T0): A1
Assay by potentiometry (−18° C., T0): 99.9%
Assay of Drug substance (LC) (−18° C., T0): 99.7%
Identification (−18° C., T0): I1
Related substances content (LC) Sum of impurities (−18° C., T0): ≤0.05%
Water content (−18° C., T0): 0.1%
SMILES: COc1ccc2c(c1)CN(Cc1ccc(C(=O)O)cc1)CCS2.O=C(O)/C=C/C(=O)O [Form 2, 4-[(7-methoxy-2,3-dihydro-1,4-benzothiazepin-4(5H)yl)methyl]benzoic acid, hemifumarate]

— patent publication US11504383B2, “Crystalline forms of a Ryanodine receptor modulator and uses thereof” (ARMGO Pharma, Inc., priority 2021, dated 2022)
